Laboratory results from ChEMBL document CHEMBL1933021, “Novel and selective spiroindoline-based inhibitors of Sky kinase” (Bioorg Med Chem Lett, 2012).
Values after ≈ are worked out from the molar mass of the structure shown.

How the values were obtained:
[1] = Aqueous solubility of compound at pH 6.5; assay type: physicochemical
[2] = Half life in human liver microsomes; assay type: ADME, Microsome
[3] = molecular target: Cytochrome P450 2D6 (Homo sapiens, UniProt P10635); test: Inhibition of CYP2D6 using dextromethorphan as substrate; assay type: ADME
[4] = Half life in po dosed Sprague-Dawley rat; assay type: ADME, organism-based; details: in vivo
[5] = molecular target: Tyrosine-protein kinase ABL1 (Homo sapiens, UniProt P00519); test: Inhibition of Abl
Tyrosine-protein kinase ABL1, sequence (P00519 whole entry): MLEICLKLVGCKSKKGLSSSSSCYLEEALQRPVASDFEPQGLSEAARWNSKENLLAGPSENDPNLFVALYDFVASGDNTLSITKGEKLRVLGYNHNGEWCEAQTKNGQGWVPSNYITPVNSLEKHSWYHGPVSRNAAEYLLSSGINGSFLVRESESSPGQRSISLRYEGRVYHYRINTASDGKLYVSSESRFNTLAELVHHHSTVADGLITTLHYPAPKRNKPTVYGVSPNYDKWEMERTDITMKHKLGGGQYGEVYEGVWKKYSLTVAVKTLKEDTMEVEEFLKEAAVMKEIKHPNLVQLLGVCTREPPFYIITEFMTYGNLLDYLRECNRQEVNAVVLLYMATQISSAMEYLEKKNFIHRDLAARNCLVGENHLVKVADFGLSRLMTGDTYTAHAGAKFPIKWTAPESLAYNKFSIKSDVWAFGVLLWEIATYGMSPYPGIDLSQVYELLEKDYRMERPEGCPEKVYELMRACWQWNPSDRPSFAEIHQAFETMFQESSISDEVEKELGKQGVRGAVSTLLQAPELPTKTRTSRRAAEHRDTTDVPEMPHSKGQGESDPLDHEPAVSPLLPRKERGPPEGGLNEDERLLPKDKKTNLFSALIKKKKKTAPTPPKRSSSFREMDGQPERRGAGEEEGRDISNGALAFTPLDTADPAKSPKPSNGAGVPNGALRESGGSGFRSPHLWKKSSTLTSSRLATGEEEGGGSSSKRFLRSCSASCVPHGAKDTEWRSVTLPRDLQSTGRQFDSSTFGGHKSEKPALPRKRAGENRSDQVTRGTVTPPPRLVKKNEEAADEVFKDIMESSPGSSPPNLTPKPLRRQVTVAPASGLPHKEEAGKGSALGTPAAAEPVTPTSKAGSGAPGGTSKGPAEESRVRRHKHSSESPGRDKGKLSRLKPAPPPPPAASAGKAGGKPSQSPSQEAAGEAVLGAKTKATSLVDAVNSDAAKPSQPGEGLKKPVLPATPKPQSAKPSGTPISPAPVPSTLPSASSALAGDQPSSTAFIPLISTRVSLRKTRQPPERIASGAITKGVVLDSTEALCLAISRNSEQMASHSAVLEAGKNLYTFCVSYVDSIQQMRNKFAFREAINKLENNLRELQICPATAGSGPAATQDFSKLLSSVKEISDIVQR

[6] = molecular target: T1, Protein kinase C zeta type (Homo sapiens, UniProt Q05513); test: Inhibition of PKCzeta
T1 sequence (Q05513 whole entry): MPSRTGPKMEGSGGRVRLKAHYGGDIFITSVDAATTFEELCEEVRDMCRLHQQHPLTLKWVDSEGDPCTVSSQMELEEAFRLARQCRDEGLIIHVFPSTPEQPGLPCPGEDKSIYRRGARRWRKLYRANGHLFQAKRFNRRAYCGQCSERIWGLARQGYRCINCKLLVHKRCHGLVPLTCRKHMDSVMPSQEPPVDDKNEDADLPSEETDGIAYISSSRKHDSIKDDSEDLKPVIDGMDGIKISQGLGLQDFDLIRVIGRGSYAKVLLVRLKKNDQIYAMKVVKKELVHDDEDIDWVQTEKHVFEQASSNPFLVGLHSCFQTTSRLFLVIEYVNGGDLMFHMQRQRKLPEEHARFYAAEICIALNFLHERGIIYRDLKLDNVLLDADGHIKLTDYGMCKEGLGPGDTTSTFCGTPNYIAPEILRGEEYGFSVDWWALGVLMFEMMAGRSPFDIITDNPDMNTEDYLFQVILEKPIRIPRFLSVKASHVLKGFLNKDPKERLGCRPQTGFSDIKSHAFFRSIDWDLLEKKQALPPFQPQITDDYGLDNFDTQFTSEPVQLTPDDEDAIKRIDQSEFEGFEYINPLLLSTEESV

[7] = molecular target: Cyclin-dependent kinase 2 (Homo sapiens, UniProt P24941); test: Inhibition of Cdk2
[8] = Inhibition of CK2
[9] = molecular target: Glycogen synthase kinase-3 beta (Homo sapiens, UniProt P49841); test: Inhibition of Gsk3beta
Glycogen synthase kinase-3 beta, sequence (P49841 whole entry): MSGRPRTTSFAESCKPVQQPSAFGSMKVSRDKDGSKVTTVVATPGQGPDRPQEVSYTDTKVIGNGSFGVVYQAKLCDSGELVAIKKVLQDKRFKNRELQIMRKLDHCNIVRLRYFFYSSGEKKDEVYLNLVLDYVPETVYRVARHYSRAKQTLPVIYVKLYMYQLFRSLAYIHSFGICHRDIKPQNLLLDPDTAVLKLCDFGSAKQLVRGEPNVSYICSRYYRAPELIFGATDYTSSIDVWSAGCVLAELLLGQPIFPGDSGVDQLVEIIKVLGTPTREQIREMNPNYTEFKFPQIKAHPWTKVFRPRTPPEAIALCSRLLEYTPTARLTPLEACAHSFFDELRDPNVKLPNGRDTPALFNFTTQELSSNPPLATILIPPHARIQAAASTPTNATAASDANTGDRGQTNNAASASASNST

[10] = molecular target: T2, Inhibitor of nuclear factor kappa-B kinase subunit beta (Homo sapiens, UniProt O14920); test: Inhibition of IKK-beta
T2 sequence (O14920 whole entry): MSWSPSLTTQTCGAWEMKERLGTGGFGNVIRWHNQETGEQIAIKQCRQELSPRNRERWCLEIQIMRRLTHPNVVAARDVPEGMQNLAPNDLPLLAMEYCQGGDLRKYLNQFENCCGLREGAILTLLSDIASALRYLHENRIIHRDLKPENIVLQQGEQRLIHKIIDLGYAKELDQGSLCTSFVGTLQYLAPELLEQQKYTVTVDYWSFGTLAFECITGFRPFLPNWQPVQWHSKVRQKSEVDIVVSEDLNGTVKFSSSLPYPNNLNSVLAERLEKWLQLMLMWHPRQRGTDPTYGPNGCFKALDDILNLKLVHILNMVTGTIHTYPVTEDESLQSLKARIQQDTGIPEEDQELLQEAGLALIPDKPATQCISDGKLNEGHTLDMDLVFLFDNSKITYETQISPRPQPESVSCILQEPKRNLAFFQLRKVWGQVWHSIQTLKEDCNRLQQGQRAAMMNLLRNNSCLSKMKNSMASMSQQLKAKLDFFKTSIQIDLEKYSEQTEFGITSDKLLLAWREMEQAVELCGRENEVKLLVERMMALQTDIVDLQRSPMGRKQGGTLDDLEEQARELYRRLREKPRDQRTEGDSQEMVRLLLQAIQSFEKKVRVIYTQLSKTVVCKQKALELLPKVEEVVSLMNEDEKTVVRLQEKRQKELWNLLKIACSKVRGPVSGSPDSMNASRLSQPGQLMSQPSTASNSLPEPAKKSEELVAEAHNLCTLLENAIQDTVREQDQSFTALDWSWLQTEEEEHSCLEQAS

[11] = molecular target: T3, Inhibitor of nuclear factor kappa-B kinase subunit epsilon (Homo sapiens, UniProt Q14164); test: Inhibition of IKKi
T3 sequence (Q14164 whole entry): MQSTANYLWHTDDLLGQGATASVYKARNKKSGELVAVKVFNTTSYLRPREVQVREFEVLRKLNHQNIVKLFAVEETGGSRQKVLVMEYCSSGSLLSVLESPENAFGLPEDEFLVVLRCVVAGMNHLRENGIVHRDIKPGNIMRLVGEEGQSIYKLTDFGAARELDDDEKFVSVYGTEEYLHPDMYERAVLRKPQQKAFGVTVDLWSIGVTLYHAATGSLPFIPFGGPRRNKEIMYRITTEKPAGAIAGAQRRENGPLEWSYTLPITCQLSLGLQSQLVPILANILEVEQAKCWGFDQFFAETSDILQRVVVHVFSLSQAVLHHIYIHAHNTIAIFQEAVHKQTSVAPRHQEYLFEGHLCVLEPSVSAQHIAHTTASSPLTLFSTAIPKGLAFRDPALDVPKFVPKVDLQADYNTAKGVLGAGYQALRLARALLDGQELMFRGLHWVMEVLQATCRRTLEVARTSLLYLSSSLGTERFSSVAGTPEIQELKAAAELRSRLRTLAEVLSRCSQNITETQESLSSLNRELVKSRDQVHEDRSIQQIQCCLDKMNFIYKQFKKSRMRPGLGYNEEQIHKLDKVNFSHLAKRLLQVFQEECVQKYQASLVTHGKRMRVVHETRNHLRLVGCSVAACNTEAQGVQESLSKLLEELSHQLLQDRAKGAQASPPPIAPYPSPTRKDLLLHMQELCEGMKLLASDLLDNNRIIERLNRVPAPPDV

[12] = molecular target: Serine/threonine-protein kinase PAK 4 (Homo sapiens, UniProt O96013); test: Inhibition of Pak4
Serine/threonine-protein kinase PAK 4, sequence (O96013 whole entry): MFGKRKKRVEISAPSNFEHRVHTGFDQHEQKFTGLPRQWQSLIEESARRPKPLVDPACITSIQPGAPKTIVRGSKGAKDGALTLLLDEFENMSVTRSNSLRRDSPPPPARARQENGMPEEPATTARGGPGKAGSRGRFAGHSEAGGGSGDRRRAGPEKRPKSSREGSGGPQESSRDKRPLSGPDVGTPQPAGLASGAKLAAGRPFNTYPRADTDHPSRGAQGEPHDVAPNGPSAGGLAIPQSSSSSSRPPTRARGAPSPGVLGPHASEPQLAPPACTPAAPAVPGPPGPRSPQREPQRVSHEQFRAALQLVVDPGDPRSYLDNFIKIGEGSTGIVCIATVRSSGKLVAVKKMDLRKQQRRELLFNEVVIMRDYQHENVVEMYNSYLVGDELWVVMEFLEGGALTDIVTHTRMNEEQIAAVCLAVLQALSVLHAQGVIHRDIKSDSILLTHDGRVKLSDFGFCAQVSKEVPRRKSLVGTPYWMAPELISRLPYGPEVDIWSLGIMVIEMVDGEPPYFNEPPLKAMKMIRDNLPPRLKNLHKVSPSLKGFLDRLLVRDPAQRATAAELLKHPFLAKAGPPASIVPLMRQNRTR

[13] = molecular target: Serine/threonine-protein kinase pim-2 (Homo sapiens, UniProt Q9P1W9); test: Inhibition of Pim-2
Serine/threonine-protein kinase pim-2, sequence (Q9P1W9 whole entry): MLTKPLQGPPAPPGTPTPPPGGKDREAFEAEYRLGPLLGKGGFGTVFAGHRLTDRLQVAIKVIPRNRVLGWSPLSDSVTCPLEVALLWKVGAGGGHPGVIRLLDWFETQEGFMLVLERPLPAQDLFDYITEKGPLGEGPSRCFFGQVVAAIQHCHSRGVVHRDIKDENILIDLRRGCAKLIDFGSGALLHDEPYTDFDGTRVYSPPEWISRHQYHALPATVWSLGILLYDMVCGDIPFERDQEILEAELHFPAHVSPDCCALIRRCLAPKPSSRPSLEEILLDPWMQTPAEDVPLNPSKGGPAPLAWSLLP

[14] = Inhibition of p38
[15] = molecular target: Fibroblast growth factor receptor 1 (Homo sapiens, UniProt P11362); test: Inhibition of FGFR1
Fibroblast growth factor receptor 1, sequence (P11362 whole entry): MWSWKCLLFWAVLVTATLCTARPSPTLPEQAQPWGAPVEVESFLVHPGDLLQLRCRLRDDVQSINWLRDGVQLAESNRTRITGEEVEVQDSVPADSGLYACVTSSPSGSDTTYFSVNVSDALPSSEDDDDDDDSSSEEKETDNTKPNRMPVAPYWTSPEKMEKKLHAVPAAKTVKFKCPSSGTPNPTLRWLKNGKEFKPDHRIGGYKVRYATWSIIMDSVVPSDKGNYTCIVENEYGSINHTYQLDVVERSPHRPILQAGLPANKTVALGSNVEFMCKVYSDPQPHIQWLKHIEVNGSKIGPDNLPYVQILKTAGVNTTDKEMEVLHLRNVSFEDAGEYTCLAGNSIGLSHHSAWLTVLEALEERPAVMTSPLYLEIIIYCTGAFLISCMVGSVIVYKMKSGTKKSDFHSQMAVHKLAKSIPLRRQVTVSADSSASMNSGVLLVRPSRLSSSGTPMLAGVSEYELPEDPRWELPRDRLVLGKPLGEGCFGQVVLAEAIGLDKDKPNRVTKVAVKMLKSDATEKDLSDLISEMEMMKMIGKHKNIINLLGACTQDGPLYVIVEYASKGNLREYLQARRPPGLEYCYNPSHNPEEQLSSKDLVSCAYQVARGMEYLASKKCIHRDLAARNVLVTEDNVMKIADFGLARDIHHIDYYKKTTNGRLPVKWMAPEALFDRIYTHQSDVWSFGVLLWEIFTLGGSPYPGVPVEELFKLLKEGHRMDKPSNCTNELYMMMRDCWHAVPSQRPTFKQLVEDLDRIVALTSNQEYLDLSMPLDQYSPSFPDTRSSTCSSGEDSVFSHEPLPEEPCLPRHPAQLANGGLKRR

[16] = molecular target: Hepatocyte growth factor receptor (Homo sapiens, UniProt P08581); test: Inhibition of HGFR
Hepatocyte growth factor receptor, sequence (P08581 whole entry): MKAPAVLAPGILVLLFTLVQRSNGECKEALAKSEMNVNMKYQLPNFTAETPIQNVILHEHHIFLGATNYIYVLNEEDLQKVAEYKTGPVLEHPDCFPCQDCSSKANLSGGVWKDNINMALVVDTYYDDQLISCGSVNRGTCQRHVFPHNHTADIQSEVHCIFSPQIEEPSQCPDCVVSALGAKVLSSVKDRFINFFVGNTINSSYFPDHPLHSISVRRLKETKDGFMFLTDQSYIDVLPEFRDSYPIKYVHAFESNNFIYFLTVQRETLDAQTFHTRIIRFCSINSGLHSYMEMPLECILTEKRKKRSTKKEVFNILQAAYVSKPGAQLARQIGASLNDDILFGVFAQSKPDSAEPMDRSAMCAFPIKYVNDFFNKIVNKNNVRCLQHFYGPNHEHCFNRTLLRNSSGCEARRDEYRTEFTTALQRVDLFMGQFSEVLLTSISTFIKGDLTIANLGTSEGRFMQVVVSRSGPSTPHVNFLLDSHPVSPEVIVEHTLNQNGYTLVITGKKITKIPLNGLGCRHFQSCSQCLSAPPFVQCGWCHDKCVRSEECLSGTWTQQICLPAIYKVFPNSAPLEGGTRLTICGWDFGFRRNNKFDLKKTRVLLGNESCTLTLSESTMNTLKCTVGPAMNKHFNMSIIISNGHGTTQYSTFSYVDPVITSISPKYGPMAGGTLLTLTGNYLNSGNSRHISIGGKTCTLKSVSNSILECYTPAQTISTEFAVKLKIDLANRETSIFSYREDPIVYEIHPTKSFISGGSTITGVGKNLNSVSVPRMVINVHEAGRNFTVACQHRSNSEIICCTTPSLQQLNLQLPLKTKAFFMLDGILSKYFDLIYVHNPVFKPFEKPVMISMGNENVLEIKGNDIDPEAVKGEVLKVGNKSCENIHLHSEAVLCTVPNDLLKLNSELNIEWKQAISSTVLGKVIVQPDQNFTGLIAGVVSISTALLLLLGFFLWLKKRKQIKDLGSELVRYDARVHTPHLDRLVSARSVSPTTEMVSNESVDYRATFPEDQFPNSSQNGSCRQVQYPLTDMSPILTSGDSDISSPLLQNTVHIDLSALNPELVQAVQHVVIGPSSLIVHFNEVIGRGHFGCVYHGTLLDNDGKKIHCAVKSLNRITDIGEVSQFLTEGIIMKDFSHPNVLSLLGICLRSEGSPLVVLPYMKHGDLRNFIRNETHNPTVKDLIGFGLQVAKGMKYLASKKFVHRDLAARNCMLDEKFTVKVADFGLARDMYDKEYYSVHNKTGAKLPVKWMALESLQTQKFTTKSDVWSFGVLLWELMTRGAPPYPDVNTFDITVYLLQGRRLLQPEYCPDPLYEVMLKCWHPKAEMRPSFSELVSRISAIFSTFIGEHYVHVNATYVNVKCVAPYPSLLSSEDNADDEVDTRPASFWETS

[17] = molecular target: RAC-alpha serine/threonine-protein kinase (Homo sapiens, UniProt P31749); test: Inhibition of AKT1
[18] = molecular target: Aurora kinase A (Homo sapiens, UniProt O14965); test: Inhibition of Aurora-A
Aurora kinase A, sequence (O14965 whole entry): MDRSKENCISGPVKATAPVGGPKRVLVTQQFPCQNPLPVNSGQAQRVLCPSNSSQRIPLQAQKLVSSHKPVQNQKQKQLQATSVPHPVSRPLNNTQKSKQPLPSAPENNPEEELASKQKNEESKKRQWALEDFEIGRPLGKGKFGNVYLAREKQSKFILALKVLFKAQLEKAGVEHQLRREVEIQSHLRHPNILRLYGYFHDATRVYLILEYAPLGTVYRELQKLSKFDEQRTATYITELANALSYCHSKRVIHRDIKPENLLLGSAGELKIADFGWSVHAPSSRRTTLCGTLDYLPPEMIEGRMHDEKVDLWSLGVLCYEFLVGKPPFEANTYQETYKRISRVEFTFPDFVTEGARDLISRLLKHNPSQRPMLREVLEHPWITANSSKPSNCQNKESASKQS

[19] = molecular target: Insulin receptor (Homo sapiens, UniProt P06213); test: Inhibition of INSR
[20] = molecular target: Mitogen-activated protein kinase 1 (Homo sapiens, UniProt P28482); test: Inhibition of Erk2
[21] = molecular target: Serine/threonine-protein kinase Sgk1 (Homo sapiens, UniProt O00141); test: Inhibition of Sgk
[22] = molecular target: Serine/threonine-protein kinase TAO3 (Homo sapiens, UniProt Q9H2K8); test: Inhibition of TAOK3
[23] = molecular target: High affinity nerve growth factor receptor (Homo sapiens, UniProt P04629); test: Inhibition of TrkA
[24] = molecular target: Vascular endothelial growth factor receptor 2 (Homo sapiens, UniProt P35968); test: Inhibition of VEGFR2

| solubility [1] | half-life [2] | IC50 [5] | IC50 [6] | IC50 [7] | IC50 [8] | IC50 [9] | IC50 [10] | IC50 [11] | IC50 [12] | IC50 [13] | IC50 [14] | IC50 [15] | IC50 [16] | SMILES | other results |
| --- | --- | --- | --- | --- | --- | --- | --- | --- | --- | --- | --- | --- | --- | --- | --- |
| 7.8 µM (≈ 3.16 µg/mL) | 52 min | > 30 µM | > 30 µM | > 30 µM | > 30 µM | > 30 µM | > 30 µM | > 30 µM | > 30 µM | > 30 µM | > 30 µM | > 30 µM | – | O=C(c1cc2ccc(F)cc2[nH]1)N1C[C@]2(CCN(C3CCNC3)C2)c2ccccc21 (stereo not given in full) | IC50 [3]: 0.655 µM; half-life [4]: 240 min |
| – | – | > 30 µM | > 30 µM | > 30 µM | > 30 µM | > 30 µM | > 30 µM | > 30 µM | > 30 µM | > 30 µM | > 30 µM | > 30 µM | > 30 µM | O=C(c1cc2cc(F)ccc2[nH]1)N1C[C@]2(CCN(C3CCCNC3)C2)c2ccccc21 (stereo not given in full) | – |
| – | – | > 30 µM | > 30 µM | > 30 µM | > 30 µM | > 30 µM | > 30 µM | > 30 µM | > 30 µM | > 30 µM | > 30 µM | > 30 µM | > 30 µM | C[C@@H]1CCC(N2CC[C@]3(CN(C(=O)c4cc5ccccc5[nH]4)c4ccccc43)C2)CN1 (stereo not given in full) | – |
| 11.7 µM (≈ 5.06 µg/mL) | 44 min | > 30 µM | > 30 µM | > 30 µM | > 30 µM | > 30 µM | > 30 µM | > 30 µM | > 30 µM | > 30 µM | > 30 µM | 22.7 µM | – | C[C@@H]1CCC(N2CC[C@]3(CN(C(=O)c4cc5ccc(F)cc5[nH]4)c4ccccc43)C2)CN1 (stereo not given in full) | IC50 [17]: > 30 µM; IC50 [18]: > 30 µM; IC50 [19]: > 30 µM; IC50 [20]: > 30 µM; IC50 [21]: > 30 µM; IC50 [22]: > 30 µM; IC50 [23]: > 30 µM; IC50 [24]: 21.9 µM |
